Experimental data: EP4678638A1, “NEW E3 UBIQUITIN LIGASE LIGAND, PROTEIN DEGRADATION AGENT AND USE THEREOF” (priority 2023, dated 2024)

Biological target: T1, human Cereblon WT GST-tagged protein (Homo sapiens, UniProt Q96SW2)
T1 construct: purchased CISBIO 64BDCRBNPEH
Experiment: CRBN binding, HTRF (CEREBLON BINDING kit)
Details: HTRF; for inhibition at 0.5 µM / inhibition at 2 µM: Table II-2, CRBN binding screening; for inhibition at 0.5 µM: read-out: Inhibition rate (%) at 0.5µM; for inhibition at 2 µM: read-out: Inhibition rate (%) at 2 µM; for IC50: Table II-1, CRBN binding
Experimental: The CEREBLON BINDING kits (specification: 10,000 tests; product number: Catalog # 64BDCRBNPEH; CISBIO company) was used to determine the CRBN binding ability of the compounds to be tested through a HTRF method (homogeneous time-resolved fluorescence). The specific methods are as follows: • 1. […] Then, 2.5 µL of human Cereblon WT GST-tagged protein solution was added to each well. Finally, 5 µL of the thoroughly mixed Thalidomide-Re reagent and GST Eu antibody working solution were added to each of the aforementioned wells. […] The blank control wells were sequentially added with 2.5 µL of diluent #9 (1X) solution, 2.5 µL of binding buffer, and 5 µL of thoroughly mixed Thalidomide-Re reagent and GST Eu antibody working solution. • 4. After sealing and incubating the solutions in the aforementioned wells at room temperature for 3 hours, the […] at emission wavelengths of 620 nm and 665 nm were detected by the HTRF method using a Spark microplate reader (V3.1 SP1).

T1 sequence (Q96SW2 whole entry): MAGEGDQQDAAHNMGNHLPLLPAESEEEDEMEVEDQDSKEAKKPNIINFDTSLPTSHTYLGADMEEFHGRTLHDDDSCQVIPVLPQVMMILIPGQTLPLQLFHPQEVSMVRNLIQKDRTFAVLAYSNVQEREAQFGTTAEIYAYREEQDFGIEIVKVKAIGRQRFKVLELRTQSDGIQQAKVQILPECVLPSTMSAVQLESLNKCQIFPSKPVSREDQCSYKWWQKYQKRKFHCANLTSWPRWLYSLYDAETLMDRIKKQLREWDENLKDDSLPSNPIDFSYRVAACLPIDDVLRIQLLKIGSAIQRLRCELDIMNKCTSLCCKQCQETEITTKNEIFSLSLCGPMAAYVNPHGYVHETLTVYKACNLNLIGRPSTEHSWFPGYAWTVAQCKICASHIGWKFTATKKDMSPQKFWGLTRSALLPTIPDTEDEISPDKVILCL

Row | Compound | inhibition at 0.5 µM [%] | inhibition at 2 µM [%] | IC50 [nM]
1 | CNC(=O)c1ccccc1Nc1cc(Nc2ccc(N3CCC(N(C)Cc4cc(C5CCC(=O)NC5=O)cnc4F)CC3)cc2OC)ncc1C(F)(F)F (stereo not shown) [GT-07656, 2-((2-((4-(4-(((5-(2,6-dioxopiperidin-3-yl)-2-fluoropyridin-3-yl)methyl)(methyl)amino)piperidin-1-yl)-2-methoxyphenyl)amino)-5-(trifluoromethyl)pyridin-4-yl)amino)-N-methylbenzamide] | 20 to 30 | 60 to 80 | –
2 | O=C1CCC(c2cncc(CN3CCC(n4cc(NC(=O)c5cnn6ccc(N7CCOCC7)nc56)c(C(F)F)n4)CC3)c2)C(=O)N1 (stereo not shown) [GT-07770, N-(3-(difluoromethyl)-1-(1-((5-(2,6-dioxopiperidin-3-yl)pyridin-3-yl)methyl)piperidin-4-yl)-1H-pyrazol-4-yl)-5-morpholinopyrazolo[1,5-a]pyrimidine-3-carboxamide] | 30 to 40 | 80 to 100 | –
3 | COc1cc2nn(C3CCN(Cc4ccc(C5CCC(=O)NC5=O)cn4)CC3)cc2cc1NC(=O)c1cccc(C(F)(F)F)n1 (stereo not shown) [GT-07534, N-(2-(1-((5-(2,6-dioxopiperidin-3-yl)pyridin-2-yl)methyl)piperidin-4-yl)-6-methoxy-2H-indazol-5-yl)-6-(trifluoromethyl)picolinamide] | 10 to 20 | 53 to 60 | –
4 | O=C1CCC(c2cncc(CN3CCC(n4cc(NC(=O)c5cnn6ccc(N7C[C@H]8C[C@@H]7CO8)nc56)c(C(F)F)n4)CC3)c2)C(=O)N1 (stereo partly drawn) [GT-07778, 5-((1R,4R)-2-oxa-5-azabicyclo[2.2.1]heptan-5-yl)-N-(3-(difluoromethyl)-1-(1-((5-(2,6-dioxopiperidin-3-yl)pyridin-3-yl)methyl)piperidin-4-yl)-1H-pyrazol-4-yl)pyrazolo[1,5-a]pyrimidine-3-carboxamide] | 40 to 53 | 80 to 100 | –
5 | O=C1CCN(c2ccc(CN3CCN(C4CCN(c5ccc([C@@H]6c7ccc(O)cc7CC[C@@H]6c6ccccc6)cc5)CC4)CC3)c(F)c2)C(=O)N1 [GT-04687, 1-(3-fluoro-4-((4-(1-(4-((1R,2S)-6-hydroxy-2-phenyl-1,2,3,4-tetrahydronaphthalen-1-yl)phenyl)piperidin-4-yl)piperazin-1-yl)methyl)phenyl)dihydropyr imidine-2,4(1H,3H)-dione] | – | – | 1000 to 1900
6 | CN(Cc1cc(N2CCC(=O)NC2=O)cnc1F)C1CCN(c2ccc(-c3cc(F)c4c(c3)C(=O)N(C(C(=O)Nc3nccs3)c3ncn5c3CCC5)C4)cc2)CC1 (stereo not shown) [GT-07823, 2-(6,7-dihydro-5H-pyrrolo[1,2-c]imidazol-1-yl)-2-(6-(4-(4-(((5-(2,4-dioxotetrahydropyrimidin-1(2H)-yl)-2-fluoropyridin-3-yl)methyl)(methyl)amino)piperidin-1-yl)phenyl)-4-fluoro-1-oxoisoindolin-2-yl)-N-(thiazol-2-yl)acetamide] | 53 to 60 | 80 to 100 | –
7 | O=C1CCN(c2ccc(CN3CCN(C4CCN(c5ccc([C@@H]6c7ccc(O)cc7CC[C@@H]6c6ccccc6)cc5)CC4)CC3)cc2)C(=O)N1 [GT-04686, 1-(4-((4-(1-(4-((1R,2S)-6-hydroxy-2-phenyl-1,2,3,4-tetrahydronaphthalen-1-yl)phenyl)piperidin-4-yl)piperazin-1-yl)methyl)phenyl)dihydropyr imidine-2,4(1H,3H)-dione] | – | – | 1000 to 1900
8 | O=C1CCN(c2cnc(F)c(CN3CCC(n4cc(NC(=O)c5cnn6ccc(N7C[C@H]8C[C@@H]7CO8)nc56)c(C(F)F)n4)CC3)c2)C(=O)N1 [GT-07791, 5-((1R,4R)-2-oxa-5-azabicyclo[2.2.1]heptan-5-yl)-N-(3-(difluoromethyl)-1-(1-((5-(2,4-dioxotetrahydropyrimidin-1(2H)-yl)-2-fluoropyridin-3-yl)methyl)piperidin-4-yl)-1H-pyrazol-4-yl)pyrazolo[1,5-a]pyrimidine-3-carboxamide] | 30 to 40 | 60 to 80 | –
9 | CN(c1nccnc1CNc1nc(Nc2ccc(N3CCN(Cc4ccc(N5CCC(=O)NC5=O)cn4)CC3)cc2)ncc1C(F)(F)F)S(C)(=O)=O [GT-07403, N-(3-(((2-((4-(4-((5-(2,4-dioxotetrahydropyrimidin-1(2H)-yl)pyridin-2-yl)methyl)piperazin-1-yl)phenyl)amino)-5-(trifluoromethyl)pyrimidin-4-yl)amino)methyl)pyrazin-2-yl)-N-methylmethanesulfonamide] | 30 to 40 | 60 to 80 | –
10 | O=C1CCN(c2cnc(F)c(CN3C[C@H]4C[C@@H]3CN4c3ccc(-c4cc(F)c5c(c4)C(=O)N(C(C(=O)Nc4nccs4)c4ncn6c4CCC6)C5)cc3)c2)C(=O)N1 (stereo partly drawn) [GT-07825, 2-(6,7-dihydro-5H-pyrrolo[1,2-c]imidazol-1-yl)-2-(6-(4-((1R,4R)-5-((5-(2,4-dioxotetrahydropyrimidin-1(2H)-yl)-2-fluoropyridin-3-yl)methyl)-2,5-diazabicyclo[2.2.1]heptan-2-yl)phenyl)-4-fluoro-1-oxoisoindolin-2-yl)-N-(thiazol-2-yl)acetamide] | 60 to 80 | 80 to 100 | –
11 | O=C1CCC(c2cnc(F)c(CN3CCC(n4cc(NC(=O)c5cnn6ccc(N7CCOCC7)nc56)c(C(F)F)n4)CC3)c2)C(=O)N1 (stereo not shown) [GT-07767, N-(3-(difluoromethyl)-1-(1-((5-(2,6-dioxopiperidin-3-yl)-2-fluoropyridin-3-yl)methyl)piperidin-4-yl)-1H-pyrazol-4-yl)-5-morpholinopyrazolo[1,5-a]pyrimidine-3-carboxamide] | 40 to 53 | 80 to 100 | –
12 | O=C1CCC(c2cnc(F)c(CN3CCC(n4cc(NC(=O)c5cnn6ccc(N7C[C@H]8C[C@@H]7CO8)nc56)c(C(F)F)n4)CC3)c2)C(=O)N1 (stereo partly drawn) [GT-07775, 5-((1R,4R)-2-oxa-5-azabicyclo[2.2.1]heptan-5-yl)-N-(3-(difluoromethyl)-1-(1-((5-(2,6-dioxopiperidin-3-yl)-2-fluoropyridin-3-yl)methyl)piperidin-4-yl)-1H-pyrazol-4-yl)pyrazolo[1,5-a]pyrimidine-3-carboxamide] | 60 to 80 | 80 to 100 | –
13 | CC(C)(O)c1cc2nn(C3CCN(Cc4cc(C5CCC(=O)NC5=O)cnc4F)CC3)cc2cc1NC(=O)c1cccc(C(F)(F)F)n1 (stereo not shown) [GT-07793, N-(2-(1-((5-(2,6-dioxopiperidin-3-yl)-2-fluoropyridin-3-yl)methyl)piperidin-4-yl)-6-(2-hydroxypropan-2-yl)-2H-indazol-5-yl)-6-(trifluoromethyl)picolinamide] | 60 to 80 | 80 to 100 | –
14 | O=C1CCN(c2cnc(F)c(CN3CCN(c4ccc(-c5cc(F)c6c(c5)C(=O)N(C(CNc5nccs5)c5ncn7c5CCC7)C6)cc4)CC3)c2)C(=O)N1 (stereo not shown) [GT-07760, 1-(5-((4-(4-(2-(1-(6,7-dihydro-5H-pyrrolo[1,2-c]imidazol-1-yl)-2-(thiazol-2-ylamino)ethyl)-7-fluoro-3-oxoisoindolin-5-yl)phenyl)piperazin-1-yl)methyl)-6-fluoropyridin-3-yl)dihydropyrimidine-2,4(1H,3H)-dione] | 40 to 53 | 60 to 80 | –
15 | O=C1CCN(c2cnc(F)c(CN3CCC(n4cc(NC(=O)c5cnn6ccc(N7CCOCC7)nc56)c(C(F)F)n4)CC3)c2)C(=O)N1 [GT-07789, N-(3-(difluoromethyl)-1-(1-((5-(2,4-dioxotetrahydropyrimidin-1(2H)-yl)-2-fluoropyridin-3-yl)methyl)piperidin-4-yl)-1H-pyrazol-4-yl)-5-morpholinopyrazolo[1,5-a]pyrimidine-3-carboxamide] | 20 to 30 | 60 to 80 | –
16 | CC(=O)c1c(C)c2cnc(Nc3ccc(N4CCN(Cc5ccc(C6CCC(=O)NC6=O)cn5)CC4)cn3)nc2n(C2CCCC2)c1=O (stereo not shown) [GT-07483, 3-(6-((4-(6-((6-acetyl-8-cyclopentyl-5-methyl-7-oxo-7,8-dihydropyrido[2,3-d]pyrimidin-2-yl)amino)pyridin-3-yl)piperazin-1-yl)methyl)pyridin-3-yl)piperidine-2,6-dione] | 53 to 60 | 80 to 100 | –
17 | O=C1CCN(c2cnc(CN3C[C@H]4C[C@@H]3CN4c3ccc(-c4cc(F)c5c(c4)C(=O)N(C(C(=O)Nc4nccs4)c4ncn6c4CCC6)C5)cc3)cn2)C(=O)N1 (stereo partly drawn) [GT-07826, 2-(6,7-dihydro-5H-pyrrolo[1,2-c]imidazol-1-yl)-2-(6-(4-((1R,4R)-5-((5-(2,4-dioxotetrahydropyrimidin-1(2H)-yl)pyrazin-2-yl)methyl)-2,5-diazabicyclo[2.2.1]heptan-2-yl)phenyl)-4-fluoro-1-oxoisoindolin-2-yl)-N-(thiazol-2-yl)acetamide] | 10 to 20 | 53 to 60 | –
18 | O=C1CCN(c2cncc(CN3CCC(n4cc(NC(=O)c5cnn6ccc(N7C[C@H]8C[C@@H]7CO8)nc56)c(C(F)F)n4)CC3)c2)C(=O)N1 [GT-07774, 5-((1R,4R)-2-oxa-5-azabicyclo[2.2.1]heptan-5-yl)-N-(3-(difluoromethyl)-1-(1-((5-(2,4-dioxotetrahydropyrimidin-1(2H)-yl)pyridin-3-yl)methyl)piperidin-4-yl)-1H-pyrazol-4-yl)pyrazolo[1,5-a]pyrimidine-3-carboxamide] | 40 to 53 | 80 to 100 | –
